Reference: patent US8003783B2, “17B-hydroxysteroid dehydrogenase inhibitors” (Sterix Limited, priority 2004, dated 2011)
Where two headings read alike, the source gives them in different places.

What was measured:
[1] = target: T1, 17β-HSD2 (Homo sapiens, UniProt P37059); test: 17β-HSD Type II activity in MDA-MB-231 cells (E2→E1); assay type: cell-based
T1 construct: was measured in intact cell monolayers of T47D and MDA-MB-231 breast cancer cells respectively; endogenous in cells; host or cells: MDA-MB-231 human breast cancer cells
T1 sequence (P37059 1-387): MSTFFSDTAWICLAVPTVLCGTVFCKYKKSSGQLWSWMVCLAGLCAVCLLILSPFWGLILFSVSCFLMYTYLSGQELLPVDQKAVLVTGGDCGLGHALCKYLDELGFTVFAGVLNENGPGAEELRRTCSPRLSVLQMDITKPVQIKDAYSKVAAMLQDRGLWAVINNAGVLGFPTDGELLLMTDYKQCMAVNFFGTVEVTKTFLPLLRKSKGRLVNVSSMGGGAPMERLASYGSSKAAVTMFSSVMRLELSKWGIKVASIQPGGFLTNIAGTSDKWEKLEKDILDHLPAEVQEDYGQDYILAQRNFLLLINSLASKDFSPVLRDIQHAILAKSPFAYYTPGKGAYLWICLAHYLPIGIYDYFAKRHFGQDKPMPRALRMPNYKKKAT

[2] = target: T2, 17β-HSD1 (Homo sapiens, UniProt P14061); test: 17β-HSD Type I activity in T-47D cells (E1→E2); assay type: cell-based; conditions: for inhibition at 10 µM: T47D
T2 construct: was measured in intact cell monolayers of T47D and MDA-MB-231 breast cancer cells respectively; endogenous in cells; host or cells: T-47D human breast cancer cells
T2 sequence (P14061 1-328): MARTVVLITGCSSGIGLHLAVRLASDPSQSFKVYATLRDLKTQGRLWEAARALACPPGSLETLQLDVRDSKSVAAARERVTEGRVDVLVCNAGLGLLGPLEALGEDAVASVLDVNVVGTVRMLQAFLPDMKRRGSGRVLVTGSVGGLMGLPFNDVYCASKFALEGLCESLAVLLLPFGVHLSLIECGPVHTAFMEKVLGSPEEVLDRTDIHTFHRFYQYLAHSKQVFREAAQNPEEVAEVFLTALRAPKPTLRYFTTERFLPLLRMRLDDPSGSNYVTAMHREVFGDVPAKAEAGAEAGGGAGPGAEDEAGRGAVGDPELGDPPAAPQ

[3] = 10 μM, MDA-MB-231 cells, E2→E1, read-out: % inhibition of 17β-HSD2 @ 10 μM
[4] = 10 μM, T-47D cells, E1→E2, read-out: % inhibition of 17β-HSD1 @ 10 μM
[5] = T-47D cells, E1→E2, read-out: IC50 (17β-HSD1)

| Compound | inhibition at 10 µM [1, 3] [%] | inhibition at 10 µM [2, 4] [%] | other results |
| --- | --- | --- | --- |
| CCN(C)C(=O)CC1CC2C3CCc4cc(O)ccc4C3CC[C@]2(C)[C@H]1O (some centres unmarked) [compound 771] | 16 | 78 | – |
| CC(C)(C)/C=C1\CC2C3CCc4cc(O)ccc4C3CC[C@]2(C)[C@H]1O (some centres unmarked) [compound 948] | 27 | 84 | – |
| C[C@]12CCC3c4ccc(O)cc4CCC3C1CC(C(=O)O)C2=O (some centres unmarked) [compound 610] | 1 | 95 | IC50 [2, 5]: 940 nM |
| CCNC(=O)CC1CC2C3CCc4cc(O)ccc4C3CC[C@]2(C)C1=O (some centres unmarked) [compound 744] | 2 | 84 | – |
| Cc1cnc(CNC(=O)C2CC3C4CCc5cc(O)ccc5C4CC[C@]3(C)[C@H]2O)cn1 (some centres unmarked) [compound 803] | -18 | 85 | – |
| COC(=O)Cn1ncc2c1[C@@]1(C)CCC3c4ccc(O)cc4CCC3C1C2 (some centres unmarked) [compound 807] | 30 | 79 | – |
| C[C@]12CCC3c4ccc(O)cc4CCC3C1CC(Cc1ccncc1)[C@@H]2O (some centres unmarked) [compound 543, 13-Methyl-16-pyridin-4-ylmethyl-7,8,9,11,12,13,14,15,16,17-decahydro-6H-cyclopenta[a]phenanthrene-3,17-diol] | 37 | 84 | – |
| CCO/C=C1/CC2C3CC(=O)c4cc(O)ccc4C3CC[C@]2(C)C1=O (some centres unmarked) [compound 749] | 8 | 85 | – |
| C[C@]12CCC3c4ccc(O)cc4CCC3C1CC(Cc1cccnc1)[C@@H]2O (stereo in doubt) [compound 542, 13-Methyl-16-pyridin-3-ylmethyl-7,8,9,11,12,13,14,15,16,17-decahydro-6H-cyclopenta[a]phenanthrene-3,17-diol] | 11 | 87 | – |
| C[C@]12CCC3c4ccc(O)cc4CCC3C1CC(CC(=O)O)[C@@H]2O (some centres unmarked) [compound 603] | 0 | 58 | – |
| COC(=O)C1CC2C3CCc4cc(O)ccc4C3CC[C@]2(C)[C@H]1O (some centres unmarked) [compound 572] | 2 | 63 | – |
| C[C@]12CCC3c4ccc(O)cc4CCC3C1CC(CC(=O)NCC1CCCO1)[C@@H]2O (some centres unmarked) [compound 668] | 25 | 63 | – |
| C[C@]12CCC3c4ccc(OS(N)(=O)=O)cc4CCC3C1CC(C#N)C2=O (some centres unmarked) [compound 209] | 18 | 71 | % inhibition of 17β-HSD1 @ 10 μM ([2]; 10 μM, T-47D cells, E1→E2): 73%; IC50 [2, 5]: 10000 nM |
| COc1cc2c(cc1OS(N)(=O)=O)CCC1C2CC[C@]2(C)C(=O)C(C#N)CC12 (some centres unmarked) [compound 210] | 8 | 95 | IC50 [2, 5]: 2100 nM |
| CCN(C)C(=O)CC1CC2C3CCc4cc(O)ccc4C3CC[C@]2(C)C1=O (some centres unmarked) [compound 741] | 5 | 79 | – |
| CN(C)c1ccc(CC2CC3C4CCc5cc(O)ccc5C4CC[C@]3(C)[C@H]2O)cc1 (some centres unmarked) [compound 594, 16-(4-Dimethylamino-benzyl)-13-methyl-7,8,9,11,12,13,14,15,16,17-decahydro-6H-cyclopenta[a]phenanthrene-3,17-diol] | 25 | 41 | – |
| C[C@]12CCC3c4ccc(O)cc4CCC3C1CC(CC(=O)Nc1nccs1)C2=O (some centres unmarked) [compound 746] | 16 | 30 | – |
| C[C@]12CCC3c4ccc(OS(N)(=O)=O)cc4CCC3C1C/C(=C\c1cccnc1)C2=O (some centres unmarked) [compound 453] | 10 | 22 | – |
| CC(NC(=O)C1CC2C3CCc4cc(O)ccc4C3CC[C@]2(C)[C@H]1O)c1ccccc1 (some centres unmarked) [compound 844] | 12 | 90 | IC50 [2]: 810 nM |

| Compound | inhibition at 10 µM [1, 3] [%] | inhibition at 10 µM [2, 4] [%] | other results |
| --- | --- | --- | --- |
| COc1cc2c(cc1O)CCC1C2CC[C@]2(C)C(=O)C(C#N)CC12 (some centres unmarked) [compound 208] | 4 | 35 | % inhibition of 17β-HSD1 @ 10 μM ([2]; 10 μM, T-47D cells, E1→E2): 31% |
| CCOC(=O)c1[nH]nc2c1CC1C3CCc4cc(O)ccc4C3CC[C@]21C (some centres unmarked) [compound 782] | 7 | 94 | IC50 [2, 5]: 1850 nM |
| CN(C)c1ccc(/C=C2\CC3C4CCc5cc(O)ccc5C4CC[C@]3(C)C2=O)cc1 (some centres unmarked) [compound 477, 16-(4-Dimethylamino-benzylidene)-3-hydroxy-13-methyl-6,7,8,9,11,12,13,14,15,16-decahydro-cyclopenta[a]phenanthron-17-one] | 13 | 72 | – |
| C[C@]12CCC3c4ccc(O)cc4CCC3C1Cc1c2n[nH]c1C(F)(F)F (some centres unmarked) [compound 949] | 36 | 75 | – |
| C[C@]12CCC3c4ccc(O)cc4CCC3C1CC(CC(=O)NCc1cccnc1)C2=O (some centres unmarked) [compound 670] | 26 | 95 | IC50 [2, 5]: 33 nM |
| COCCNC(=O)CC1CC2C3CCc4cc(O)ccc4C3CC[C@]2(C)C1=O (some centres unmarked) [compound 689] | 8 | 53 | – |
| C[C@H](NC(=O)CC1CC2C3CCc4cc(O)ccc4C3CC[C@]2(C)C1=O)c1ccccc1 (some centres unmarked) [compound 690] | 10 | 83 | – |
| C[C@]12CCC3c4ccc(O)cc4CCC3C1CC(CC(=O)NCCc1ccccn1)C2=O (some centres unmarked) [compound 691] | 14 | 58 | – |
| C[C@]12CCC3c4ccc(O)cc4CCC3C1CC(CC(=O)NCC1CCCO1)C2=O (some centres unmarked) [compound 671] | 21 | 91 | IC50 [2, 5]: 380 nM |
| C[C@]12CCC3c4ccc(O)cc4CCC3C1CC(Cc1ccccn1)[C@@H]2O (some centres unmarked) [compound 567, 13-Methyl-16-pyridin-2-ylmethyl-7,8,9,11,12,13,14,15,16,17-decahydro-6H-cyclopenta[□]phenanthrene-3-17-diol] | 11 | 88 | – |
| CCOC(=O)CC1CC2C3CCc4cc(O)ccc4C3CC[C@]2(C)[C@H]1O (some centres unmarked) [compound 574] | 18 | 67 | – |
| COc1cc(/C=C2\CC3C4CCc5cc(OS(N)(=O)=O)ccc5C4CC[C@]3(C)[C@H]2O)cc(OC)c1OC (some centres unmarked) [compound 693] | 10 | 13 | – |
| C[C@]12CCC3c4ccc(OS(N)(=O)=O)cc4CCC3C1C/C(=C\c1ccccc1)[C@@H]2O (some centres unmarked) [compound 315] | 1 | 4 | – |
| C[C@]12CCC3c4ccc(O)cc4CCC3C1Cc1cccnc12 (some centres unmarked) [compound 663] | 34 | 78 | – |
| C[C@]12CCC3c4ccc(O)cc4CCC3C1CC(C#N)C2=O (some centres unmarked) [compound 207] | 17 | 83 | % inhibition of 17β-HSD1 @ 10 μM ([2]; 10 μM, T-47D cells, E1→E2): 71%; IC50 [2, 5]: 10000 nM |
| C[C@]12CCC3c4ccc(O)cc4CCC3C1Cc1c2n[nH]c1CO (some centres unmarked) [compound 804] | -1 | 94 | IC50 [2, 5]: 950 nM |
| C[C@]12CCC3c4ccc(O)cc4CCC3C1C/C(=C\c1cccnc1)[C@@H]2O (some centres unmarked) [compound 323] | 43 | 52 | – |
| COCCn1cc2c(n1)[C@@]1(C)CCC3c4ccc(O)cc4CCC3C1C2 (some centres unmarked) [compound 808] | 48 | 95 | IC50 [2, 5]: 530 nM |
| CN1CCN(C(=O)c2[nH]nc3c2CC2C4CCc5cc(O)ccc5C4CC[C@]32C)CC1 (some centres unmarked) [compound 897] | – | – | inhibition at 10 µM ([1]; MDA-MB-231, read-out: % inhibition of 17β-HSD2 @ 10 μM): -0.7%; inhibition at 10 µM ([2]; read-out: % inhibition of 17β-HSD1 @ 10 μM, 10 μM, T-47D cells, E1→E2): 50% |
